According to ChEMBL document CHEMBL1201862, “PubChem BioAssay data set” (2004):
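48-hour exposure; five concentrations; linearly interpolated endpoints. Here, GI50 denotes the concentration required for 50% inhibition of growth.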 Active and inactive are the calls of the source. No stated cut-off is given here; in the data, active = GI50 up to about 1.1 µM and inactive = higher.

Key:
Experiment in all cases: NCI-60 cell line screen, 48 h
A498 = tested on: A498
BT-549 = tested on: BT-549
CCRF-CEM = tested on: CCRF-CEM
HCT-116 = tested on: HCT-116
HCT-15 = tested on: HCT-15
MCF7 = tested on: MCF7
MDA-MB-231 = tested on: MDA-MB-231
NCI-H23 = tested on: NCI-H23
NCI-H460 = tested on: NCI-H460
NCI-H522 = tested on: NCI-H522
OVCAR-8 = tested on: OVCAR-8
RPMI-8226 = tested on: RPMI-8226
SF-268 = tested on: SF-268
SF-295 = tested on: SF-295
SK-OV-3 = tested on: SK-OV-3
SNB-75 = tested on: SNB-75
SW-620 = tested on: SW-620
U-251 = tested on: U-251
UO-31 = tested on: UO-31

NCCNc1nc(N2CCCC2)c2nc(Cl)c(NCc3ccccc3)nc2n1
GI50 (A498): 1.83 µM (inactive) | GI50 (BT-549): 1.98 µM (inactive) | GI50 (CCRF-CEM): 2.42 µM (inactive) | GI50 (HCT-116): 1.49 µM (inactive) | GI50 (HCT-15): 1.95 µM | GI50 (MCF7): 1.73 µM (inactive) | GI50 (MDA-MB-231): 1.33 µM (inactive) | GI50 (NCI-H23): 2.14 µM (inactive) | GI50 (NCI-H460): 1.85 µM (inactive) | GI50 (NCI-H522): 1.67 µM (inactive) | GI50 (OVCAR-8): 1.76 µM (inactive) | GI50 (RPMI-8226): 1.88 µM (inactive) | GI50 (SF-268): 1.96 µM (inactive) | GI50 (SF-295): 1.86 µM (inactive) | GI50 (SK-OV-3): 1.82 µM (inactive) | GI50 (SNB-75): 1.72 µM (inactive) | GI50 (SW-620): 2.04 µM (inactive) | GI50 (U-251): 1.63 µM (inactive) | GI50 (UO-31): 1.73 µM (inactive)

CC[N+]1(C)CCC(O)(/C=C/c2ccc(OC)cc2)C(C(=O)/C=C/c2ccc(OC)cc2)C1 (stereo not drawn)
GI50 (A498): 16.7 µM (inactive) | GI50 (BT-549): 20.1 µM (inactive) | GI50 (CCRF-CEM): 0.548 µM (active) | GI50 (HCT-116): 12.7 µM (inactive) | GI50 (HCT-15): 9.98 µM | GI50 (MCF7): 4.29 µM (inactive) | GI50 (MDA-MB-231): 23.9 µM (inactive) | GI50 (NCI-H23): 16.2 µM (inactive) | GI50 (NCI-H460): 9.53 µM (inactive) | GI50 (NCI-H522): 2.26 µM (inactive) | GI50 (OVCAR-8): 23.3 µM (inactive) | GI50 (RPMI-8226): 0.252 µM (active) | GI50 (SF-268): 10.6 µM (inactive) | GI50 (SF-295): 18.6 µM (inactive) | GI50 (SK-OV-3): 19.1 µM (inactive) | GI50 (SNB-75): 18.9 µM (inactive) | GI50 (SW-620): 2.7 µM (inactive) | GI50 (U-251): 15.6 µM (inactive) | GI50 (UO-31): 12.6 µM (inactive)

Cc1nnc2cc(C(=O)O)c3ccccc3n2c1=O
GI50 (A498): > 10 µM (inactive) | GI50 (BT-549): > 10 µM (inactive) | GI50 (CCRF-CEM): > 10 µM (inactive) | GI50 (HCT-116): > 10 µM (inactive) | GI50 (HCT-15): > 10 µM | GI50 (MCF7): > 10 µM (inactive) | GI50 (MDA-MB-231): > 10 µM (inactive) | GI50 (NCI-H23): > 10 µM (inactive) | GI50 (NCI-H460): > 10 µM (inactive) | GI50 (NCI-H522): > 10 µM (inactive) | GI50 (OVCAR-8): > 10 µM (inactive) | GI50 (RPMI-8226): > 10 µM (inactive) | GI50 (SF-268): > 10 µM (inactive) | GI50 (SF-295): > 10 µM (inactive) | GI50 (SK-OV-3): > 10 µM (inactive) | GI50 (SNB-75): 2.55 µM (inactive) | GI50 (SW-620): > 10 µM (inactive) | GI50 (U-251): > 10 µM (inactive) | GI50 (UO-31): > 10 µM (inactive)

COc1ccc2c(c1)-c1c(c3ccccc3n1CCN1CCCCC1)CC2
GI50 (A498): 34 µM (inactive) | GI50 (BT-549): 23.1 µM (inactive) | GI50 (CCRF-CEM): 19.5 µM (inactive) | GI50 (HCT-116): 13.1 µM (inactive) | GI50 (HCT-15): 13.3 µM | GI50 (MCF7): 7.24 µM (inactive) | GI50 (MDA-MB-231): 14.3 µM (inactive) | GI50 (NCI-H23): 18.3 µM (inactive) | GI50 (NCI-H460): 16.6 µM (inactive) | GI50 (NCI-H522): 14.6 µM (inactive) | GI50 (OVCAR-8): 4.43 µM (inactive) | GI50 (RPMI-8226): 11.3 µM (inactive) | GI50 (SF-268): 17.4 µM (inactive) | GI50 (SF-295): 5.52 µM (inactive) | GI50 (SK-OV-3): 24.2 µM (inactive) | GI50 (SNB-75): 14.8 µM (inactive) | GI50 (SW-620): 26.1 µM (inactive) | GI50 (U-251): 19.5 µM (inactive) | GI50 (UO-31): 12.6 µM (inactive)

Cc1ccc([S+]([O-])(=Nc2ccccc2)C(C(C)C)C(C)(C)Cl)cc1 (stereo not drawn)
GI50 (A498): 18.5 µM (inactive) | GI50 (BT-549): 18.1 µM (inactive) | GI50 (CCRF-CEM): 9.1 µM (inactive) | GI50 (HCT-116): 16.9 µM (inactive) | GI50 (HCT-15): 17 µM | GI50 (MCF7): 20.6 µM (inactive) | GI50 (MDA-MB-231): 17.2 µM (inactive) | GI50 (NCI-H23): 9.91 µM (inactive) | GI50 (NCI-H460): 4.21 µM (inactive) | GI50 (NCI-H522): 16 µM (inactive) | GI50 (OVCAR-8): > 50 µM (inactive) | GI50 (RPMI-8226): 14 µM (inactive) | GI50 (SF-268): 44.4 µM (inactive) | GI50 (SF-295): 16.3 µM (inactive) | GI50 (SK-OV-3): > 50 µM (inactive) | GI50 (SNB-75): > 50 µM (inactive) | GI50 (SW-620): 20.9 µM (inactive) | GI50 (U-251): 16.7 µM (inactive) | GI50 (UO-31): 18.8 µM (inactive)

COC1(c2cccs2)c2ccccc2C(OC)(c2cccs2)c2ccccc21 (stereo not drawn)
GI50 (A498): 28.5 µM (inactive) | GI50 (BT-549): 78.5 µM (inactive) | GI50 (CCRF-CEM): > 100 µM (inactive) | GI50 (HCT-116): 17.4 µM (inactive) | GI50 (HCT-15): > 100 µM | GI50 (MCF7): 84.7 µM (inactive) | GI50 (MDA-MB-231): 26.4 µM (inactive) | GI50 (NCI-H23): 23.9 µM (inactive) | GI50 (NCI-H460): > 100 µM (inactive) | GI50 (NCI-H522): 97.9 µM (inactive) | GI50 (OVCAR-8): > 100 µM (inactive) | GI50 (RPMI-8226): 63.2 µM (inactive) | GI50 (SF-268): 48.5 µM (inactive) | GI50 (SF-295): 28.3 µM (inactive) | GI50 (SK-OV-3): 86.1 µM (inactive) | GI50 (SNB-75): 59.8 µM (inactive) | GI50 (SW-620): > 100 µM (inactive) | GI50 (U-251): 42.4 µM (inactive) | GI50 (UO-31): > 100 µM (inactive)

CC(C)[Si](OC1=C(c2ccccc2)C(NC(=O)/C=C/c2ccc([N+](=O)[O-])cc2)CCC1)(C(C)C)C(C)C (stereo not drawn)
GI50 (A498): > 100 µM (inactive) | GI50 (BT-549): > 100 µM (inactive) | GI50 (CCRF-CEM): > 100 µM (inactive) | GI50 (HCT-116): > 100 µM (inactive) | GI50 (HCT-15): > 100 µM | GI50 (MCF7): > 100 µM (inactive) | GI50 (MDA-MB-231): > 100 µM (inactive) | GI50 (NCI-H23): > 100 µM (inactive) | GI50 (NCI-H460): > 100 µM (inactive) | GI50 (NCI-H522): > 100 µM (inactive) | GI50 (OVCAR-8): > 100 µM (inactive) | GI50 (RPMI-8226): 9.71 µM (inactive) | GI50 (SF-268): > 100 µM (inactive) | GI50 (SF-295): > 100 µM (inactive) | GI50 (SK-OV-3): > 100 µM (inactive) | GI50 (SNB-75): > 100 µM (inactive) | GI50 (SW-620): > 100 µM (inactive) | GI50 (U-251): > 100 µM (inactive) | GI50 (UO-31): > 100 µM (inactive)
